Patent US7560586B2, “Acid and ester compounds and methods of using the same” (SmithKline Beecham Corporation, priority 2002, dated 2009)

What was measured:
[1] = target: T1, LXRα ligand binding domain (Homo sapiens, UniProt Q13133); test: Ligand Sensing Assay for LXRα Agonist Activity; type: biochemical; conditions: 1 μM; over a background reading of 10000 fluorescence units
T1 construct: his tag; made in house
T1 sequence (Q13133 183-447): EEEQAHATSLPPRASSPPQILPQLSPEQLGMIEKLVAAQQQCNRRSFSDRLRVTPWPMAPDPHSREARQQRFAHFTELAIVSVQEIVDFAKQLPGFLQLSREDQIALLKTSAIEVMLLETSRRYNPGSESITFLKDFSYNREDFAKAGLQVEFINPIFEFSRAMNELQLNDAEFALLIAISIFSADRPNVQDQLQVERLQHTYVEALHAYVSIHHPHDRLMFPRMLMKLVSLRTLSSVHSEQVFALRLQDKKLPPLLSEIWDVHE
T1 sequence (Q15788 676-700 partner): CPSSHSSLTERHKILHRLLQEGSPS
Method: Test Method 2: Ligand Sensing Assay for LXRα Agonist Activity
The assay for LXRα was run according to the procedures of Test Method 1, above using his-tagged LXRα ligand binding domain (amino acids 183447 of Genbank accession number U22662, with the 14th amino acid corrected to A from R). In this assay 1 μM 24(S), 25-epoxycholesterol gave a reading of 20000 fluorescence units over a background reading of 10000 fluorescence units.

[2] = target: T2, human LXRβ ligand binding domain (Homo sapiens, UniProt P55055); test: Ligand Sensing Assay (LiSA) for LXRβ Agonist Activity (recruitment of SRC1-derived peptide, HTRF); type: biochemical; conditions: 1 μM; over a background reading of 10000 fluorescence units
T2 construct: LXRβLBD(185-461) is eluted with a gradient from 50 to 500 mM imidazole; made in house; host or cells: E. coli BL21(DE3), vector pRSETa
T2 sequence (P55055 184-460 limits assumed): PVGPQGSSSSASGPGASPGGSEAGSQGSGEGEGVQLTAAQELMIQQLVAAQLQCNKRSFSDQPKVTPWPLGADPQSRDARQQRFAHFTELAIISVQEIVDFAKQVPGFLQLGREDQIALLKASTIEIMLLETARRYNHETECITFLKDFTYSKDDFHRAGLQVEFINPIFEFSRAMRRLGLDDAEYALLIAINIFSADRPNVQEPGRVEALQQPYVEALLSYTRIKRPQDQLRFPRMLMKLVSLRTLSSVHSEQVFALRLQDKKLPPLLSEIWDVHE
T2 sequence (Q15788 676-700 partner limits assumed): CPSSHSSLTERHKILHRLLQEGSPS
Text: Test Method 1: Ligand Sensing Assay (LiSA) for LXRβ Agonist Activity
This assay measures the recruitment of a peptide derived from the coactivator protein, SRC1, to the agonist-bound LXRβ. Peptides derived from other nuclear receptor cofactors may be similarly prepared and assayed.
To generate the human LXRβ ligand binding domain suitable for LiSA, a modified polyhistidine tag (MKKGHHHHHHG) (SEQ ID No. 1) was fused in frame to the human LXRβ ligand binding domain (amino acids 185461 of Genbank accession number U07132) and subcloned into the expression vector pRSETa (Invitrogen) under the control of an IPTG inducible T7 promoter. The human LXRβ ligand binding domain was expressed in E. coli strain BL21(DE3). Ten-liter fermentation batches were grown in Rich PO4 media with 0.1 mg/mL Ampicillin at 25° C. for 12 hours, cooled to 9° C. and held at that temperature for 36 hours to a density of OD600=14. At this cell density, 0.25 mM IPTG was added and induction proceeded for 24 hours at 9° C., to a final OD600=16. […]
Typically 25-50 g of cell paste is resuspended in 250-500 mL TBS, pH 8.0 (25 mM Tris, 150 mM NaCl). […] After washing to baseline absorbance with equilibration buffer, the column is washed with approximately one column volume of TBS pH […] containing 95 mM imidazole. […] After washing to baseline absorbance with the dilution buffer the protein is eluted with a gradient from 50-500 mM NaCl. […]

SMILES: C[C@H](CC[C@@H]1OC1(C)C)[C@H]1CC[C@H]2[C@@H]3CC=C4C[C@@H](O)CC[C@]4(C)[C@H]3CC[C@]12C [24(S), 25-epoxycholesterol]
- reading [1]: 20000 fluorescence units
- reading [2]: 20000 fluorescence units
